From ChEMBL document CHEMBL3044774, “Synthesis of D-glucosamine quaternary ammonium derivatives and evaluation of their antifungal activity together with aminodeoxyglucose derivatives against two wood fungi Coriolus versicolor and Poria placenta: structure-activity relationships” (2011) come the findings set out here.

For the first assay, the system named is Poria. Nature of the assay: Antifungal activity against Poria placenta FPRL 280 assessed as mycelial growth inhibition at 0.5 x 10^-4 mol/ml after 9 days relative to control. In kind it is functional.
As for `N[C@@H]1O[C@H](CO)[C@@H](O)[C@H](O)[C@H]1O`, the “growth inhibition (GI)” value was 81.6%.
As for `N[C@H]1[C@H](O)[C@@H](CO)OC(O)[C@@H]1O` (stereo partly specified), the “growth inhibition (GI)” value amounted to 18.4%.
Same read-out and setting: under `NC[C@H]1O[C@@H](O)[C@H](O)[C@@H](O)[C@@H]1O` stands 27.1%; under `N[C@H]1C(O)O[C@H](CO)[C@@H](O)[C@@H]1O` (stereo partly specified) [GLUCOSAMINE], 10.2%.

Another assay relates to Poria. Nature of the assay: Antifungal activity against Poria placenta FPRL 280 assessed as mycelial growth inhibition at 0.75 x 10^-4 mol/ml after 9 days relative to control. It is filed as functional.
Regarding `CC(=O)OC[C@H]1OC(OC(C)=O)[C@H](N(C)C)[C@@H](OC(C)=O)[C@@H]1OC(C)=O` (stereo partly specified), the “growth inhibition (GI)” value is 48.2%.
Regarding `N[C@@H]1O[C@H](CO)[C@@H](O)[C@H](O)[C@H]1O`, the “growth inhibition (GI)” value worked out at 100%.
With `N[C@H]1[C@H](O)[C@@H](CO)OC(O)[C@@H]1O` (stereo partly specified), the “growth inhibition (GI)” value is 26.7%.
Turning to `NC[C@H]1O[C@@H](O)[C@H](O)[C@@H](O)[C@@H]1O`, the “growth inhibition (GI)” value is given as 31.7%.
As to `CC(=O)OC[C@H]1OC(OC(C)=O)[C@H]([N+](C)(C)C)[C@@H](OC(C)=O)[C@@H]1OC(C)=O` (stereo partly specified), the “growth inhibition (GI)” value worked out at 74.1%.
As for `CC[N+](C)(C)[C@H]1C(OC(C)=O)O[C@H](COC(C)=O)[C@@H](OC(C)=O)[C@@H]1OC(C)=O` (stereo partly specified), the “growth inhibition (GI)” value turned out to be 80%.
Take `CCN[C@H]1C(O)O[C@H](CO)[C@@H](O)[C@@H]1O` (stereo partly specified): the “growth inhibition (GI)” value is recorded as 47.1%.
Take `CC[N+](C)(C)[C@H]1C(O)O[C@H](CO)[C@@H](O)[C@@H]1O.O=S(=O)([O-])O` (stereo partly specified): the “growth inhibition (GI)” value is on record as 77.2%.
For `CC(=O)OC[C@H]1OC(OC(C)=O)[C@H](NC2CCCCC2)[C@@H](OC(C)=O)[C@@H]1OC(C)=O` (stereo partly specified), the “growth inhibition (GI)” value amounted to 91.8%.
For `CC(=O)OC[C@H]1OC(OC(C)=O)[C@H]([N+](C)(C)C2CCCCC2)[C@@H](OC(C)=O)[C@@H]1OC(C)=O` (stereo partly specified), the “growth inhibition (GI)” value stood at 100%.
`N[C@H]1C(O)O[C@H](CO)[C@@H](O)[C@@H]1O` (stereo partly specified) [GLUCOSAMINE]: the “growth inhibition (GI)” value was determined as 25.9%.

The test system of the next assay is Trametes versicolor. Nature of the assay: Antifungal activity against Trametes versicolor Quel. CTB 863-A assessed as mycelial growth inhibition at 1.5 x 10^-4 mol/ml after 9 days relative to control. In kind it is functional.
Consider `CC(=O)OC[C@H]1OC(OC(C)=O)[C@H](N(C)C)[C@@H](OC(C)=O)[C@@H]1OC(C)=O` (stereo partly specified), for which the “growth inhibition (GI)” value is 34.9%.
On the same count and under the same terms, next, `N[C@@H]1O[C@H](CO)[C@@H](O)[C@H](O)[C@H]1O`: 82.4%.
Still for that read-out and setting: next, `N[C@H]1[C@H](O)[C@@H](CO)OC(O)[C@@H]1O` (stereo partly specified): 14.9%.
`NC[C@H]1O[C@@H](O)[C@H](O)[C@@H](O)[C@@H]1O`: the “growth inhibition (GI)” value amounted to 19.2%.
`CC(=O)OC[C@H]1OC(OC(C)=O)[C@H]([N+](C)(C)C)[C@@H](OC(C)=O)[C@@H]1OC(C)=O` (stereo partly specified): the “growth inhibition (GI)” value worked out at 45.9%.
Still for that read-out and setting: under `CCN[C@H]1C(OC(C)=O)O[C@H](COC(C)=O)[C@@H](OC(C)=O)[C@@H]1OC(C)=O` (stereo partly specified) stands 53.7%.
With `CC[N+](C)(C)[C@H]1C(OC(C)=O)O[C@H](COC(C)=O)[C@@H](OC(C)=O)[C@@H]1OC(C)=O` (stereo partly specified), the “growth inhibition (GI)” value is 74.9%.
On to `CCN[C@H]1C(O)O[C@H](CO)[C@@H](O)[C@@H]1O` (stereo partly specified), for which the “growth inhibition (GI)” value stood at 40.4%.
`CC[N+](C)(C)[C@H]1C(O)O[C@H](CO)[C@@H](O)[C@@H]1O.O=S(=O)([O-])O` (stereo partly specified): the “growth inhibition (GI)” value is recorded as 64.4%.
Same read-out and setting: under `CC(=O)OC[C@H]1OC(OC(C)=O)[C@H](NC2CCCCC2)[C@@H](OC(C)=O)[C@@H]1OC(C)=O` (stereo partly specified) stands 87.9%; under `CC(=O)OC[C@H]1OC(OC(C)=O)[C@H]([N+](C)(C)C2CCCCC2)[C@@H](OC(C)=O)[C@@H]1OC(C)=O` (stereo partly specified), 100%.
As for `N[C@H]1C(O)O[C@H](CO)[C@@H](O)[C@@H]1O` (stereo partly specified) [GLUCOSAMINE], the “growth inhibition (GI)” value is 11%.

A further assay deals with Trametes versicolor. Description: Antifungal activity against Trametes versicolor Quel. CTB 863-A assessed as mycelial growth inhibition at 1 x 10^-4 mol/ml after 9 days relative to control. It is filed as functional.
Turning to `N[C@@H]1O[C@H](CO)[C@@H](O)[C@H](O)[C@H]1O`, the “growth inhibition (GI)” value is on record as 50.6%.
Turning to `N[C@H]1[C@H](O)[C@@H](CO)OC(O)[C@@H]1O` (stereo partly specified), the “growth inhibition (GI)” value turned out to be 0%.
As for `NC[C@H]1O[C@@H](O)[C@H](O)[C@@H](O)[C@@H]1O`, the “growth inhibition (GI)” value is recorded as 6.7%.
Turning to `N[C@H]1C(O)O[C@H](CO)[C@@H](O)[C@@H]1O` (stereo partly specified) [GLUCOSAMINE], the “growth inhibition (GI)” value is listed as 0%.
